In patent US8436159B2, “Glyphosate resistant class I 5-endolpyruvylshikimate-3-phosphate synthase (EPSPS)” (Monsanto Technology LLC, priority 2003, dated 2013):
Substitutions are numbered along the chain they refer to.

What was measured:
[1] = biological target: T1, maize (Zea mays) class I EPSPS variant TIPT (T102I, P106T), pMON58452, ZmTIPT SEQ ID NO:38 (Zea mays, UniProt O24566, P106T/T102I); test: EPSPS steady-state kinetics, TIPT variant; assay type: biochemical
T1 construct: pMON58452
T1 sequence (O24566 1-444 T102I/P106T): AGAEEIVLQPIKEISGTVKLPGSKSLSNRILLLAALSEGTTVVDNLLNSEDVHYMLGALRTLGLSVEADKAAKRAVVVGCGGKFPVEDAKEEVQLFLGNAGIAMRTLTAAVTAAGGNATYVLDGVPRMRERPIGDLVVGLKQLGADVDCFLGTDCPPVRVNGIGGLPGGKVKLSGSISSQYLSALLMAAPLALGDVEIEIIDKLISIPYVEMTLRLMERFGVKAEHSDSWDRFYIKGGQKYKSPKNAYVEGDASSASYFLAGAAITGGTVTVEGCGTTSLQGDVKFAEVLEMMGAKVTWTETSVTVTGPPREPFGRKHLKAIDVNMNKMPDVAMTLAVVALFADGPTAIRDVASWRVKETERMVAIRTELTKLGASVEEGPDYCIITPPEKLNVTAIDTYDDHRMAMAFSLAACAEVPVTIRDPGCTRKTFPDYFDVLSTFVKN
Source text: (§1) The double variants of the present invention were made using pMON58452 (FIG. 5) as the template. This pMON58452 EPSPS gene template contains the maize EPSPS double variant T102I, P106T (TIPT) that was constructed by mutagenesis of pMON70467 with the mutagenesis primers mEmut-9-U and mEmut-10-L. The various mutagenesis primer sequences were designed and then were synthesized by Invitrogen Corp., Custom Primers and used in combination in a PCR to create the variant EPSPS coding sequences. The PCR was set up in a 50 μl reaction in the following manner: dH2O 38 μl; 2 mM dNTP 1 μL; 10× buffer 5 μL; pMON58452 1 μL (10 ng); primer-U 2 μL; primer-L 2 μL; pfu Turbo enzyme 1 μL. PCR was carried out on a MJ Research PTC-200 thermal cycler using the following program: Step 1—94° C. for 30 seconds; Step 2—94° C. for 30 seconds; Step 3—55° C. for 1 minute; Step 4—68° C. for 14 minute; Step 5—go to step 2, 16 times; Step 6—End. At the end of the PCR, 1 μl of the restriction enzyme DpnI was added to each 50 μl of PCR reaction and the mixture was incubated at 37° C. for 1 hour. […]

[2] = biological target: T2, maize (Zea mays) class I EPSPS variant TIPC (T102I, P106C), pMON42485 (Zea mays, UniProt O24566, P106C/T102I); test: EPSPS steady-state kinetics, TIPC variant
T2 sequence (O24566 1-444 T102I/P106C): T1 sequence (O24566 1-444 T102I/P106T) with T106C
Source text: as §1

[3] = test system: E. coli EPSPS variant, alanine for the glycine at position 96 (G96A); settings: glyphosate-resistant isolate; read-out: apparent Ki for glyphosate; cited from earlier work

SMILES: O=C(O)CNCP(=O)(O)O [glyphosate, N-phosphonomethylglycine]
- Ki [1]: 101 ± 12.7 µM
- Ki [2]: 818 ± 74.4 µM
- Ki [3]: 4 mM
